From US8946383B2, “Obtaining cocoa extracts rich in bioactive peptides with ACE and PEP enzyme inhibitory activity” (Naturex, priority 2008, dated 2015)
Where a SMILES comes first, the peptide text is derived from it. The star is where a group is joined. Cbz = O=C(OCc1ccccc1)*

Test system: CL4176 transgenic strain of C. elegans
Experiment: Paralysis assay after induction of Ab peptide expression in C. elegans
Format: in vivo, Caenorhabditis elegans
Conditions: third day after inducing Ab peptide expression at 23° C.; 100 μl of fraction per plate; ZPP 0.1 mM
Experimental: An oxidative stress assay using the CL4176 transgenic strain of C. elegans was carried out, characterized by expressing the human amyloid beta-peptide (Abl-42) after temperature induction.
Prior data in the literature indicate that the formation of amyloid beta-peptide plaques is preceded by oxidative stress (Drake et al, “Oxidative stress precedes fibrillar deposition of Alzheimer's disease amyloid beta-peptide (1-42) in a transgenic Caenorhabditis elegans model” Neurobiol Aging 2003, 24(3):415-20). Therefore, it is interesting to evaluate if the hypothetical reduction of fibrillar deposition of Ab peptides in the neurons produced by the action of a molecule or compound gives rise to greater resistance against oxidative stress treatments. Furthermore, the expression of said peptide in these transgenic animals produces a paralysis that can be evaluated after adding the molecule or compound of interest.
To carry out the experiment, worms of the CL4176 strain having a synchronized age by means of plate cultivation of NG at 16° C. were obtained. The eggs were collected in NG plates which contained 100 μl of each peptide fraction (F11, F12, F14 and F18). […] For the first 3 days after induction, the number of worms paralyzed in each assayed condition was analyzed. […] The plates were incubated at 23° C. and after 5 hours the total number of worms that survived treatment were counted.

O=C[C@@H]1CCCN1C(=O)[C@@H]1CCCN1C(=O)OCc1ccccc1 [Z-prolyl prolinal] (Cbz-Pro-Pro-aldehyde)
percentage of non-paralyzed worms: 99.44%
